“Also recorded” adds a separate entry of the source. Bridges are numbered along the chain shown (N, C = ends). Where no end group is shown, it is not given here.
Assays:
[1] = tested on: hKv7.2/7.3; test: TEVC, Kv7.2/7.3 in Xenopus oocytes; format: cell-based, human
Description: (§1) For the expression of Kv channels (rKv1.1, rKv1.2, rKv1.3, rKv1.4, rK1.5, rKv1.6, hKv2.1, hKv3.1, rKv4.2, hKv7.1, hKv7.2/7.3, hKv7.4, KQT1 (from the roundworm Caenorhabditis elegans), hKv10.1 (hEAG1), hKv11.1 (hERG1), and Shaker, from Drosophila melanogaster), Nav channels (rNav1.1, rNav1.2, rNav1.3, rNav1.4, hNav1.5, mNav1.6, hNav1.7, hNav1.8, and BgNav (from the cockroach Blattella germanica), as well as the hβ1 and rβ1 subunits, and Cav channels (rCav3.1, hCav3.2, and rCav3.3) in Xenopus oocytes, the linearized plasmids were transcribed using the T7 or SP6 mMESSAGEmMACHINE transcription kit (Ambion, Austin, TX, USA). Mature female animals were purchased from Nasco (Fort Atkinson, WI, USA) and were housed in the Aquatic Facility (KU Leuven) in compliance with the regulations of the European Union (EU) concerning the welfare of laboratory animals as declared in Directive 2010/63/EU. The use of X. laevis oocytes was approved by the Animal Ethics Committee of the KU Leuven, with the license number P186/2019.
(§2) Stage V–VI oocytes were collected from anesthetized female X. laevis frog as previously described, with the frogs anesthetized by placement in a 0.1% tricaine solution (amino benzoic acid ethyl ester; Merck, Kenilworth, NJ, USA). Oocyte microinjection was performed using a microinjector (Drummond Scientifc®, Broomall, PA, USA), with a programmed cRNA injection volume of 4–50 nL, depending on channel subtype. The oocytes were incubated in ND96 solution (96 mM NaCl; 2 mM KCl; 1.8 mM CaCl2; 2 mM MgCl2, and 5 mM HEPES, pH 7.4), supplemented with 50 mg/L of gentamicin sulfate.
(§3) Electrophysiological measurements were performed at room temperature (18–22 °C) using the two-electrode voltage-clamp (TEVC) technique. Data were obtained using a GeneClamp 500 amplifier (Axon Instruments®, Burlingame, CA, USA) and Clampex9 software (Axon Instruments®, USA) was responsible for data acquisition and storage. Glass micropipettes were produced using glass capillaries (borosilicate WPI 1B120-6) and drawn in a WPI (World Precision Instruments®, Sarasota, FL, USA) manual stretcher. The bath and perfusion solutions were either the previously described ND96 (Nav and Kv channels) or calcium-free ND96 supplemented with 10 mM BaCl2 (Cav channels).
(§4) Whole-cell currents of oocytes were recorded 1 to 3 days after RNA injection. The current and voltage electrodes were filled with 3 M KCl, and their resistance was adjusted from 1.0 to 2.5 MΩ. […] The current–voltage relationships were determined by 50 ms step depolarizations between −90 and +65 mV using 5 or 10 mV increments. All electrophysiological data were analyzed following the procedures described by Peigneur et al., 2012 [20].
(§5) All values were expressed as means ± SEM. […]

[2] = tested on: KQT1; test: TEVC, KQT1 in Xenopus oocytes; format: cell-based, Caenorhabditis elegans
Description: as §1, §2, §3
Whole-cell currents of oocytes were recorded 1 to 3 days after RNA injection. The current and voltage electrodes were filled with 3 M KCl, and their resistance was adjusted from 1.0 to 2.5 MΩ. Currents were sampled at 20 kHz (Nav channels) and 10 kHz (Kv and Cav channels) and filtered using a four-pole Bessel low-pass Bessel filter at 1 kHz for sodium and […] for potassium and calcium, except for the hERG ion channel in which the currents were filtered at 1 kHz. Leak subtraction was performed using a P/4 protocol. Kv1.x currents were evoked by 500 ms depolarizations to 0 mV, followed by a 500 ms pulse to −50 mV from a holding potential of −90 mV. Kv2.1, Kv3.1, Kv4.2, Kv7.x, and KQT1 currents were elicited by 700 ms pulses to +20 mV from a holding potential of −90 mV. Current traces of the hERG1 channel were elicited by applying a +40 mV prepulse for 2 s, followed by a step of −120 mV for 2 s. […] The current–voltage relationships were determined by 50 ms step depolarizations between −90 and +65 mV using 5 or 10 mV increments. All electrophysiological data were analyzed following the procedures described by Peigneur et al., 2012 [20].
as §5

[3] = tested on: rCav3.1; test: TEVC, Cav3.1 in Xenopus oocytes; format: cell-based, rat
Description: as §1, §2, §3, §4, §5

[4] = 1 µM, TEVC, ND96 pH 7.4, 18–22 °C, n ≥ 3
[5] = 1 µM vs control (ND96 Ca2+ free)

## GTPCKCHGYIGVYWFMLAGCPNGYGYNLSCPYFLGICCVKK (disulfide 4-37, 6-30, 20-38 (inferred)) [Hcr 1b-2]
[1]; 1 µM
  gating-modifier effect (voltage-current relationship), Kv7.2/7.3: non-significant gating-modifier effect
[1]; 1 µM vs control (ND96)
  Shift in Vhalf activation, Kv7.2/7.3: 1.3 mV
[1]; [4]
  effect on potassium current, Kv7.2/7.3: inhibition; also recorded: inhibits
[1]; 1 µM, control (ND96) 14.6 ± 0.5, mean ± SEM
  Vhalf activation, Kv7.2/7.3: 15.9 ± 0.7 mV
[2]; 1 µM
  gating-modifier effect (voltage-current relationship), KQT1: stronger shift
[2]; 1 µM vs control (ND96)
  Shift in Vhalf activation, KQT1: 7.9 mV
[2]; 1 µM, 700 ms pulse to +20 mV from −90 mV, mean ± SEM, n ≥ 3
  activity (inhibition of current), KQT1: 33.4 ± 3.3%
[2]; [4]
  effect on potassium current, KQT1: inhibition
[2]; 1 µM, control (ND96) 14.6 ± 0.4, mean ± SEM
  Vhalf activation, KQT1: 22.4 ± 0.5 mV
[3]; [5]
  Shift in Vhalf activation, Cav3.1: −0.2 mV
  Shift in Vhalf inactivation, Cav3.1: −2.3 mV
[3]; 1 µM, control (ND96 Ca2+ free) −41.0 ± 0.1, mean ± SEM, n ≥ 3
  Vhalf activation, Cav3.1: −41.2 ± 0.1 mV
[3]; 1 µM, control (ND96 Ca2+ free) −58.4 ± 0.2, mean ± SEM, n ≥ 3
  Vhalf inactivation, Cav3.1: −60.7 ± 0.2 mV
